Target: T1, CCT8 in the human mLST8-CCT complex (Homo sapiens, UniProt P50990)
T1 construct: isolated from HEK-293T cells co-expressing His6-myc-PhLP1; no nucleotide added; with T-complex protein 1 subunit alpha; T-complex protein 1 subunit beta; T-complex protein 1 subunit gamma; T-complex protein 1 subunit delta; T-complex protein 1 subunit epsilon; T-complex protein 1 subunit zeta; T-complex protein 1 subunit eta; Target of rapamycin complex subunit LST8
T1 sequence (P50990 2-548): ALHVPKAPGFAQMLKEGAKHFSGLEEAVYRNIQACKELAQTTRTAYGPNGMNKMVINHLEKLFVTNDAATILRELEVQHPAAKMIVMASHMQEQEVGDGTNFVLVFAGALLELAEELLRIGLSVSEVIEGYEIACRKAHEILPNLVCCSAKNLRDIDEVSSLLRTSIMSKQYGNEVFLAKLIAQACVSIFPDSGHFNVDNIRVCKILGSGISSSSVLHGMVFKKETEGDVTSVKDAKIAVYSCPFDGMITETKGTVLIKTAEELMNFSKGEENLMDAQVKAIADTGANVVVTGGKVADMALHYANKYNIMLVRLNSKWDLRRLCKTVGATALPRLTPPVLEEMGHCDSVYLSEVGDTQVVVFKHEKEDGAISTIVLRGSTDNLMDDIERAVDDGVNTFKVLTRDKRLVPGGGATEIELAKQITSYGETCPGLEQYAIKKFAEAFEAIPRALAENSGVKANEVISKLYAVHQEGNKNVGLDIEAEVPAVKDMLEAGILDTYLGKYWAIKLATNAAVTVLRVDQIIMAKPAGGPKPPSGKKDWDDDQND
Assay: cryo-EM structure of the complex ([…] A)
Conditions: co-purified nucleotide, none added; equatorial nucleotide-binding pocket of both CCT8 subunits

Compound: Nc1ncnc2c1ncn2[C@@H]1O[C@H](COP(=O)(O)OP(=O)(O)O)[C@@H](O)[C@H]1O [ADP]
- cryo-EM structure of the complex (4.0 A): nucleotide-binding pocket of either of the CCT8 subunits revealed electron density that is clearly attributable to ADP

Reference: PMC6599039, “Structural and functional analysis of the role of the chaperonin CCT in mTOR complex assembly” (Nature Communications, 2019)
